The values that follow come from patent US4916122A, “3'-Azido-2',3'-dideoxyuridine anti-retroviral composition” (University of Georgia Research Foundation, Inc., priority 1987, dated 1990).

Converted amounts (≈) assume the structure as drawn. “And” between values parts separate entries of the source, which are not always exact repeats. Equal entries are not always repeated. Where two headings read alike, the source gives them in different places.

One data set relates to HIV-1 p24. Description: Inhibition of HIV replication in human PBM cells, p24 RIA (Table 3).
For the next data set, the system named is HIV-1. Kind of data set: microbe, parasite or virus in culture. As to conditions: Human immunodeficiency virus 1, PBMC, read-out: PBM (EC50).
The next data set deals with uninfected cells. Conditions: CS-87 compared with AZT.
The conditions of data set [1]: preliminary results, Yarchoan et al. 1986; cited from earlier work.
In a further data set the test system is Friend Leukemia virus. As to conditions: Ostertag et al.; Krieg et al.; cited from earlier work.
A further data set deals with Friend (EY-10). Description: Median effective antiviral concentration against Friend virus (Table 5). The data set is classed as cell-based, murine retrovirus. As to conditions: unidentified retrovirus, in Mus musculus. The source says:
(§1) A comparison of the differences in median effective an tiviral concentrations between human, non-human primate, and murine retroviruses is shown in Table 5. […] A further comparison of the activity of several nucleoside analogues, including CS-87, against HIV-1 and SIV in human PBM cells is shown in FIG. 6. The effect of delayed treatment with AZT, CS-87 or CS-91 on the replication of HIV-1 and SIV in human PBM cells is shown in FIGS. 7a, b, and c.

For another data set, the system named is NIH Swiss mice. As to conditions: oral 0.5 mg/ml ad libitum, 67 days.
The next data set deals with HIV-1 (Strain RF-II). Description: Antiviral activity against HIV-1 in HeLa-T4 cells (Table 4). The format is cell-based. Conditions: Human immunodeficiency virus 1, HeLaT4, HIV-1. As for the experimental part: Evaluation in Hela-T4 cells infected with HIV-1 (Strain RF-II)
HeLa-T4 cells (described in Cell 47: 333, 1986) are maintained in Dulbecco's Modified Eagle medium containing 10% inactivated fetal calf serum, penicillin (100 U/ml) and streptomycin (100 μg/ml), and the antibiotic G418 (1 mg/ml). The cells are seeded onto a 96-well plate (2×10^4 cells/well per 0.1 ml), and two days later, the supernatant is removed and the virus added. After adsorption for 45 minutes, the inoculum is removed and the cells washed with phosphate-buffered saline (pH 7.2). The compounds at different concentration are then added in maintenance medium (containing 2% serum). […] The cells are fixed with a mixture of 5% glacial acetic acid/95% Ethanol for 15 minutes, and then stained with Giemsa (20% in PSB) for 4 hours. The plates are then washed and dried. The foci are then enumerated with a dissecting stereomicroscope.

In data set [2] the test system is Mouse ecotropic (Cas-Br-M). Description: Median effective antiviral concentration against mouse ecotropic virus (Table 5). The data set is classed as cell-based, murine retrovirus. As to conditions: unidentified retrovirus.
Source text: as §1

The subject of another data set is HIV-1 and SIV. Description: Effect of delayed treatment on replication of HIV-1 and SIV in human PBM cells (FIG. 7). The data set is classed as cell-based, HIV-1; SIV.
Source text: as §1

Another data set relates to HIV-1 (Strain HTLV-III). Description: Antiviral activity against HIV-1 in ATH-8 cells (Table 4). Conditions: Human immunodeficiency virus 1, 240 h, read-out: ATH-8 (MIC).
A further data set has as its system HIV (LAV-1). Kind of data set: Median effective antiviral concentration against HIV (Table 5). Conditions: Human immunodeficiency virus 1. The format is cell-based.
The next data set has as its system HIV p24 and p41. Description: Inhibition of HIV replication in human PBM cells, western blot analysis (Table 3).
A further data set relates to SIV (SMM). Description: Median effective antiviral concentration against SIV (Table 5). The format is cell-based, simian immunodeficiency virus. As to conditions: Simian immunodeficiency virus.
Source text: as §1

The next data set relates to HIV-1 (strain LAV). Description: Inhibition of HIV replication in human PBM cells, reverse transcriptase assay (Table 3).
Another data set deals with HIV. As to conditions: in vitro.
Data set [3] deals with T1, Host cell α-DNA pol (Homo sapiens, UniProt P09884).
T1 sequence (P09884 1-1462): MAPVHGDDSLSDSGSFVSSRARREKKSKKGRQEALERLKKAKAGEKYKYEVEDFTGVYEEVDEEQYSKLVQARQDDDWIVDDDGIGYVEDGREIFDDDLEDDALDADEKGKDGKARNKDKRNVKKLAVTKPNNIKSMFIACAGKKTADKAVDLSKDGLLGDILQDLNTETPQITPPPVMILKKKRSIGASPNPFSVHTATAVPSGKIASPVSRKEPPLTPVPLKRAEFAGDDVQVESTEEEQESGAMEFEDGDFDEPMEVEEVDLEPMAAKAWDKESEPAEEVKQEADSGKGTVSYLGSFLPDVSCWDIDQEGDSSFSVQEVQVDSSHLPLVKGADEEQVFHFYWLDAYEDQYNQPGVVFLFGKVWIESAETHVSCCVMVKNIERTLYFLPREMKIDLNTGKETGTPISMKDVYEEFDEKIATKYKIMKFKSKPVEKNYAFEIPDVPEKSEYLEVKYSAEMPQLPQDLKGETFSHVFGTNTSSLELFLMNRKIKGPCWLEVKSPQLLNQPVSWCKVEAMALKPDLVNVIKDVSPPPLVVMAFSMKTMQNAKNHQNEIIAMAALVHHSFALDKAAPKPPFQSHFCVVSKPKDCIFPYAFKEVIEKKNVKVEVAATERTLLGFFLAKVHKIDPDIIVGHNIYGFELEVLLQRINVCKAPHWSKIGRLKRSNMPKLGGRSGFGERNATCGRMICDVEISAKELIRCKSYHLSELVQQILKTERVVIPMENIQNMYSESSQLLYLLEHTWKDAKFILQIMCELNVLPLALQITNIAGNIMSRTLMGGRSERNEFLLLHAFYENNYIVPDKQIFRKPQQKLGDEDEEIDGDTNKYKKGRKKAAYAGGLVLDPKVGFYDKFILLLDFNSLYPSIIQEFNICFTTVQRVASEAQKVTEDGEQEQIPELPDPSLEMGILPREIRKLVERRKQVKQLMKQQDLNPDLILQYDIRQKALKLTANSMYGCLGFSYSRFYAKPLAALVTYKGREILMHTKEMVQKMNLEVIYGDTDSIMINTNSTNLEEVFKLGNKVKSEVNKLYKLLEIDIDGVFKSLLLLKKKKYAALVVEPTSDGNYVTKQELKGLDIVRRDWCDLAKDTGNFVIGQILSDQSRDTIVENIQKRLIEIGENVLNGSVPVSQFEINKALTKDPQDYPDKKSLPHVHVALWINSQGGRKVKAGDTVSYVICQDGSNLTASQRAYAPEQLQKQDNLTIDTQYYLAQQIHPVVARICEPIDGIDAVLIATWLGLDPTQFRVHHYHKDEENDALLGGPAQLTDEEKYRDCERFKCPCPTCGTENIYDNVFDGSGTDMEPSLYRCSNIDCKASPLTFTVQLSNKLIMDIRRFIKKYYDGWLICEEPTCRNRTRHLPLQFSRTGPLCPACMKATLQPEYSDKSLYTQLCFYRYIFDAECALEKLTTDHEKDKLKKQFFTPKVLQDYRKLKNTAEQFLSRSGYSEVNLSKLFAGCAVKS
As to conditions: 5'-triphosphate; according to Furman et al.; read-out: Host cell α-DNA pol K1; cited from earlier work.

Data set [4] addresses T2, HIV RT (Human immunodeficiency virus type 1 group M subtype B, UniProt P03367).
T2 construct: HIV reverse transcriptase
As to conditions: 5'-triphosphate; according to Furman et al.; read-out: HIV RT K1; cited from earlier work.

In data set [5] the target is T1, Host cell α-DNA pol. Kind of data set: Effect of 5'-triphosphates on alpha DNA polymerase (Table 6). The data set is classed as biochemical. Conditions: for Ratio: Cellular/HIV: K1 host cell α-DNA pol / K1 HIV RT.
Data set [6] concerns the target T2, HIV RT. Description: Effect of 5'-triphosphates on HIV reverse transcriptase (Table 6). The format is biochemical. Conditions: 5'-triphosphate; read-out: HIV RT K1.
Setting [7] is: Human immunodeficiency virus 1, PBMC, in Homo sapiens, read-out: RIA p24 % Inhibition.
The mark [8] stands for this setting: individual mouse, listed as AzT.
Setting [9] is: individual mouse, listed as Azt.
Setting [10] is: Human immunodeficiency virus 1, PBMC, in Homo sapiens, read-out: RT % Inhibition (corrected).

Consider `Cc1cn([C@H]2C[C@H](N=[N+]=[N-])[C@@H](CO)O2)c(=O)[nH]c1=O` [AZT, 3'-azido-3'-deoxythymidine, reference compound], for which the “RIA p24 (Dupont kit)” value came to 4.39 ng/mL in the data set with HIV-1 p24 (0.01 μM), 0.51 ng/mL with HIV-1 p24 (0.1 μM) and 0.18 ng/mL in the data set on HIV-1 p24 (1 μM). Moreover, the inhibition at 0.01 µM with HIV-1 p24 (setting [7]) stood at 81.8%; in the data set with HIV-1 (strain LAV) (setting [10]) it was 89.8%. In addition, the inhibition at 0.1 µM with HIV-1 p24 (setting [7]) was determined as 97.9%; with HIV-1 (strain LAV) (setting [10]) it was 99.1%. Further, the inhibition at 1 µM in the data set on HIV-1 p24 (setting [7]) came to 99.3%; in the data set with HIV-1 (strain LAV) (setting [10]), 99.7%. Further, the concentration for a half-maximal effect (EC50) in the data set on HIV-1 came out at 0.002 µM; in the data set on Friend (EY-10) it was 0.004 µM; in the data set with HIV-1 (Strain RF-II), 0.34 µM; in [2], 0.007 µM; in the data set on HIV (LAV-1) it was 0.002 µM; with SIV (SMM), 0.002 µM. Also, the “cytotoxicity / toxicity in words” value in the data set on uninfected cells is listed as “much greater toxicity”. Moreover, in data set [1], the “toxicity in a clinical setting” value was “exhibits toxicity”. In addition, in the data set with Friend Leukemia virus, the “activity against Friend Leukemia virus” value is “activity against Friend Leukemia virus”. For the same molecule, the Hct was 28.7% with NIH Swiss mice (Mean of group); 28.4% and 35.0% with NIH Swiss mice (setting [8]); 21.1% and 30.1% in the data set on NIH Swiss mice (setting [9]). For the same molecule, the Hgb is 9.2 g/dL in the data set on NIH Swiss mice (Mean of group); 9.1 g/dL and 11.0 g/dL in the data set with NIH Swiss mice (setting [8]); 6.9 g/dL and 9.6 g/dL in the data set on NIH Swiss mice (setting [9]). The MCH in the data set with NIH Swiss mice (Mean of group) is 21.4 pg; with NIH Swiss mice (setting [8]) it was 22.1 pg and 21.2 pg; in the data set with NIH Swiss mice (setting [9]) it was 20.5 pg and 21.6 pg. The MCHC was 32.0 g/dL with NIH Swiss mice (Mean of group); 32.1 g/dL and 31.4 g/dL in the data set with NIH Swiss mice (setting [8]); 32.6 g/dL and 31.9 g/dL with NIH Swiss mice (setting [9]). Also, the MCV in the data set on NIH Swiss mice (Mean of group) was 66.8 fL; in the data set with NIH Swiss mice (setting [8]), 68.9 fL and 67.4 fL; with NIH Swiss mice (setting [9]), 62.9 fL and 67.8 fL. Also, the PLT is 1.2 × 10^6 in the data set with NIH Swiss mice (Mean of group); 1.076 × 10^6 and 1.292 × 10^6 in the data set on NIH Swiss mice (setting [8]); 1.187 × 10^6 and 1.112 × 10^6 in the data set on NIH Swiss mice (setting [9]). Also, the RBC was 4.3 × 10^6 with NIH Swiss mice (Mean of group); 4.1 × 10^6 and 5.2 × 10^6 with NIH Swiss mice (setting [8]); 3.4 × 10^6 and 4.4 × 10^6 in the data set on NIH Swiss mice (setting [9]). The RDW in the data set with NIH Swiss mice (Mean of group) was 23.4%; in the data set on NIH Swiss mice (setting [8]) it was 29.9% and 17.8%; in the data set with NIH Swiss mice (setting [9]), 24.6% and 21.3%. The WBC with NIH Swiss mice (Mean of group) was 6.6 × 10^3; in the data set with NIH Swiss mice (setting [8]), 4.5 × 10^3 and 8.8 × 10^3; in the data set on NIH Swiss mice (setting [9]), 5.2 × 10^3 and 7.9 × 10^3. For the same molecule, in the data set on HIV-1 and SIV, the “effect of delayed treatment on replication of HIV-1 and SIV” value was “time of administration is critical to the effectiveness of the treatment”. The MIC in the data set with HIV-1 (Strain HTLV-III) amounted to 0.32 µM (≈ 0.0855 µg/mL). Also, the “Western blot p24 (band intensity)” value is listed as 2+ in the data set on HIV p24 and p41 (0.01 μM); 0 in the data set with HIV p24 and p41 (0.1 μM); 0 in the data set with HIV p24 and p41 (1 μM). Besides, the “Western blot p41 (band intensity)” value was 1+ with HIV p24 and p41 (0.01 μM); 0 with HIV p24 and p41 (0.1 μM); 0 in the data set with HIV p24 and p41 (1 μM). For the same molecule, the “RT: Mean DPM/ml on day 5 (3 day old cells)” value with HIV-1 (strain LAV) (0.01 μM) is given as 65,208 DPM/ml; with HIV-1 (strain LAV) (0.1 μM), 6,144 DPM/ml; in the data set with HIV-1 (strain LAV) (1 μM) it was 2,304 DPM/ml. The “activity against HIV, in words” value in the data set with HIV is on record as “somewhat more active than CS-87”.
Consider `Cc1cn([C@H]2C[C@H](N=[N+]=[N-])[C@@H](CO[P@](=O)(O)O[P@](=O)(O)OP(=O)(O)O)O2)c(=O)[nH]c1=O` [AZT-TP], for which the Ki on Host cell α-DNA pol [3] was 230 µM; on HIV RT [4] it was 0.04 µM. In addition, at Host cell α-DNA pol [5], the “Ratio: Cellular/HIV” value is 5,750.
As to `[N-]=[N+]=N[C@H]1C[C@H](n2ccc(=O)[nH]c2=O)O[C@@H]1COP(=O)(O)OP(=O)(O)OP(=O)(O)O` [CS-87-TP, 3'-azido-2',3'-dideoxyuridine triphosphate], the Ki on Host cell α-DNA pol [5] (5'-triphosphate, read-out: Host cell α-DNA pol K1) is 1200 µM; at HIV RT [6] it was 0.009 µM. Also, on Host cell α-DNA pol [5], the “Ratio: Cellular/HIV” value is 133,333.
